# Measured values published in the supplement of paper PMC10307832.
# How the values were obtained:
# Experiment in all cases: relative viability (nuclei count vs DMSO), 5 days (fraction); higher = more cells survive
# [1] = compound: CN(C)CC1=CC(=CC=C1)N=C(C2=CC=CC=C2)C3=C(NC4=C3C=CC(=C4)C(=O)N(C)C)O
# Procedure, shortened: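 MetaXpress counted nuclei in 4× images of lung cancer cell lines that had been fixed, permeabilised and Hoechst-stained in one step. Before that, cells in 1536-well plates were kept overnight at 37 °C, pinned with five √10-spaced library-drug doses on vehicle-anchored plates, and cultured 5 days without medium change. Viability takes treated-well nuclei over vehicle-well nuclei and uses the median across plates. Plates were accepted only at control CV below 25% and at least one doubling.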
# [2] = compound: CN(C)CC1=CC(=CC=C1)N=C(C2=CC=CC=C2)C3=C(NC4=C3C=CC(=C4)C(=O)N(C)C)O + CCNC(=O)c1noc(-c2cc(C(C)C)c(O)cc2O)c1-c1ccc(CN2CCOCC2)cc1 [Luminespib] (partner 0.01 µM)
# Procedure, shortened: (§1)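 Dosing by pin tool came one day after lung cancer cell lines were seeded in 1536-well plates, using either one drug or a fixed anchor-drug dose plus five library-drug doses (not always all listed) in √10 steps. After 5 days, nuclei were counted on 4× images. Relative viability is treated-well nuclei count divided by vehicle-well nuclei count, and values are medians of duplicate plates.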
# [3] = compound: CN(C)CC1=CC(=CC=C1)N=C(C2=CC=CC=C2)C3=C(NC4=C3C=CC(=C4)C(=O)N(C)C)O + COc1cc2c(Oc3ccc(NC(=O)C4(C(=O)Nc5ccc(F)cc5)CC4)cc3F)ccnc2cc1OCCCN1CCOCC1 [Foretinib] (partner 0.25 µM)
# Procedure, shortened: as §1
# [4] = compound: CN(C)CC1=CC(=CC=C1)N=C(C2=CC=CC=C2)C3=C(NC4=C3C=CC(=C4)C(=O)N(C)C)O + COc1cccc2cc(-c3nc([C@H]4CC[C@H](C(=O)O)CC4)n4ncnc(N)c34)[nH]c12 [OSI-027] (partner 0.5 µM)
# Procedure, shortened: as §1
# [5] = compound: CN(C)CC1=CC(=CC=C1)N=C(C2=CC=CC=C2)C3=C(NC4=C3C=CC(=C4)C(=O)N(C)C)O + Cc1cc(Nc2cc(N3CCN(C)CC3)nc(Sc3ccc(NC(=O)C4CC4)cc3)n2)n[nH]1 [Tozasertib] (partner 0.1 µM)
# Procedure, shortened: as §1
# [6] = compound: CN(C)CC1=CC(=CC=C1)N=C(C2=CC=CC=C2)C3=C(NC4=C3C=CC(=C4)C(=O)N(C)C)O + Cc1nc(Nc2ncc(C(=O)Nc3c(C)cccc3Cl)s2)cc(N2CCN(CCO)CC2)n1 [Dasatinib] (partner 0.075 µM)
# Procedure, shortened: as §1
# [7] = compound: CN(C)CC1=CC(=CC=C1)N=C(C2=CC=CC=C2)C3=C(NC4=C3C=CC(=C4)C(=O)N(C)C)O + N=C(N)NC(=N)NCCc1ccccc1 [Phenformin] (partner 250 µM)
# Procedure, shortened: as §1
# [8] = compound: CN(C)CC1=CC(=CC=C1)N=C(C2=CC=CC=C2)C3=C(NC4=C3C=CC(=C4)C(=O)N(C)C)O + CC(=O)Nc1cccc(-n2c(=O)n(C3CC3)c(=O)c3c(Nc4ccc(I)cc4F)n(C)c(=O)c(C)c32)c1 [Trametinib] (partner 0.02 µM)
# Procedure, shortened: as §1
# [9] = compound: CN(C)CC1=CC(=CC=C1)N=C(C2=CC=CC=C2)C3=C(NC4=C3C=CC(=C4)C(=O)N(C)C)O + CC(=O)c1c(C)c2cnc(Nc3ccc(N4CCNCC4)cn3)nc2n(C2CCCC2)c1=O [Palbociclib] (partner 0.5 µM)
# Procedure, shortened: as §1
# [10] = compound: CN(C)CC1=CC(=CC=C1)N=C(C2=CC=CC=C2)C3=C(NC4=C3C=CC(=C4)C(=O)N(C)C)O + NC(=O)Nc1cc(-c2cccc(F)c2)sc1C(=O)N[C@H]1CCCNC1 [AZD7762] (partner 0.2 µM)
# Procedure, shortened: as §1
# [11] = compound: CN(C)CC1=CC(=CC=C1)N=C(C2=CC=CC=C2)C3=C(NC4=C3C=CC(=C4)C(=O)N(C)C)O + Nc1nc2[nH]cc(CCc3ccc(C(=O)N[C@@H](CCC(=O)O)C(=O)O)cc3)c2c(=O)[nH]1 [Pemetrexed] (partner 0.2 µM)
# Procedure, shortened: as §1
# [12] = compound: CN(C)CC1=CC(=CC=C1)N=C(C2=CC=CC=C2)C3=C(NC4=C3C=CC(=C4)C(=O)N(C)C)O + Nc1ncn([C@H]2C[C@H](O)[C@@H](CO)O2)c(=O)n1 [Decitabine] (partner 2 µM)
# Procedure, shortened: as §1
# [13] = compound: CN(C)CC1=CC(=CC=C1)N=C(C2=CC=CC=C2)C3=C(NC4=C3C=CC(=C4)C(=O)N(C)C)O + O=C(CCCCCCC(=O)Nc1ccccc1)NO [Vorinostat] (partner 1 µM)
# Procedure, shortened: as §1
# [14] = compound: CN(C)CC1=CC(=CC=C1)N=C(C2=CC=CC=C2)C3=C(NC4=C3C=CC(=C4)C(=O)N(C)C)O + O=C(c1cc(Cc2n[nH]c(=O)c3ccccc23)ccc1F)N1CCN(C(=O)C2CC2)CC1 [Olaparib] (partner 8 µM)
# Procedure, shortened: as §1
cell line,measurement,setting,value
NCI-H1623,relative viability,[1]; 0.08 µM,1.09
same,relative viability,[1]; 0.253 µM,0.97
same,relative viability,[1]; 0.8 µM,0.729
same,relative viability,[1]; 2.53 µM,1.04
same,relative viability,[1]; 8 µM,1.09
same,relative viability,[2]; first compound 0.08 µM,0.416
same,relative viability,[2]; first compound 0.253 µM,0.652
same,relative viability,[2]; first compound 2.53 µM,0.445
same,relative viability,[2]; first compound 8 µM,0.504
same,relative viability,[3]; first compound 0.08 µM,0.825
same,relative viability,[3]; first compound 0.253 µM,1.17
same,relative viability,[3]; first compound 0.8 µM,0.642
same,relative viability,[3]; first compound 2.53 µM,0.894
same,relative viability,[3]; first compound 8 µM,0.854
same,relative viability,[4]; first compound 0.08 µM,0.428
same,relative viability,[4]; first compound 0.253 µM,0.449
same,relative viability,[4]; first compound 0.8 µM,0.378
same,relative viability,[4]; first compound 2.53 µM,0.452
same,relative viability,[4]; first compound 8 µM,0.514
same,relative viability,[5]; first compound 0.08 µM,0.428
same,relative viability,[5]; first compound 0.253 µM,0.519
same,relative viability,[5]; first compound 2.53 µM,0.412
same,relative viability,[5]; first compound 8 µM,0.464
same,relative viability,[6]; first compound 0.08 µM,0.552
same,relative viability,[6]; first compound 0.253 µM,0.632
same,relative viability,[6]; first compound 2.53 µM,0.593
same,relative viability,[6]; first compound 8 µM,0.499
same,relative viability,[7]; first compound 0.08 µM,0.544
same,relative viability,[7]; first compound 0.253 µM,0.69
same,relative viability,[7]; first compound 2.53 µM,0.551
same,relative viability,[7]; first compound 8 µM,0.514
SW 900,relative viability,[1]; 0.08 µM,0.997
same,relative viability,[1]; 0.253 µM,0.886
same,relative viability,[1]; 0.8 µM,0.983
same,relative viability,[1]; 2.53 µM,0.934
same,relative viability,[1]; 8 µM,0.937
same,relative viability,[8]; first compound 0.08 µM,0.819
same,relative viability,[8]; first compound 0.253 µM,0.738
same,relative viability,[8]; first compound 0.8 µM,0.702
same,relative viability,[8]; first compound 2.53 µM,1.04
same,relative viability,[8]; first compound 8 µM,1.24
same,relative viability,[9]; first compound 0.08 µM,0.517
same,relative viability,[9]; first compound 0.253 µM,0.481
same,relative viability,[9]; first compound 0.8 µM,0.527
same,relative viability,[9]; first compound 2.53 µM,0.569
same,relative viability,[9]; first compound 8 µM,0.622
same,relative viability,[2]; first compound 0.08 µM,0.175
same,relative viability,[2]; first compound 0.253 µM,0.167
same,relative viability,[2]; first compound 0.8 µM,0.188
same,relative viability,[2]; first compound 2.53 µM,0.18
same,relative viability,[2]; first compound 8 µM,0.202
same,relative viability,[3]; first compound 0.08 µM,0.867
same,relative viability,[3]; first compound 0.253 µM,0.842
same,relative viability,[3]; first compound 0.8 µM,0.7
same,relative viability,[3]; first compound 2.53 µM,0.887
same,relative viability,[3]; first compound 8 µM,0.861
same,relative viability,[4]; first compound 0.08 µM,0.677
same,relative viability,[4]; first compound 0.253 µM,0.652
same,relative viability,[4]; first compound 0.8 µM,0.663
same,relative viability,[4]; first compound 2.53 µM,0.664
same,relative viability,[4]; first compound 8 µM,0.537
same,relative viability,[5]; first compound 0.08 µM,0.669
same,relative viability,[5]; first compound 0.253 µM,0.58
same,relative viability,[5]; first compound 0.8 µM,0.519
same,relative viability,[5]; first compound 2.53 µM,0.562
same,relative viability,[5]; first compound 8 µM,0.552
same,relative viability,[6]; first compound 0.08 µM,0.364
same,relative viability,[6]; first compound 0.253 µM,0.582
same,relative viability,[6]; first compound 0.8 µM,0.55
same,relative viability,[6]; first compound 2.53 µM,0.622
same,relative viability,[6]; first compound 8 µM,0.573
same,relative viability,[7]; first compound 0.08 µM,0.613
same,relative viability,[7]; first compound 0.253 µM,0.668
same,relative viability,[7]; first compound 0.8 µM,0.646
same,relative viability,[7]; first compound 2.53 µM,0.492
same,relative viability,[7]; first compound 8 µM,0.602
same,relative viability,[10]; first compound 0.08 µM,0.664
same,relative viability,[10]; first compound 0.253 µM,0.581
same,relative viability,[10]; first compound 0.8 µM,0.55
same,relative viability,[10]; first compound 2.53 µM,0.649
same,relative viability,[10]; first compound 8 µM,0.685
same,relative viability,[11]; first compound 0.08 µM,0.439
same,relative viability,[11]; first compound 0.253 µM,0.495
same,relative viability,[11]; first compound 0.8 µM,0.497
same,relative viability,[11]; first compound 2.53 µM,0.535
same,relative viability,[11]; first compound 8 µM,0.445
same,relative viability,[12]; first compound 0.08 µM,0.385
same,relative viability,[12]; first compound 0.253 µM,0.48
same,relative viability,[12]; first compound 0.8 µM,0.43
same,relative viability,[12]; first compound 2.53 µM,0.409
same,relative viability,[12]; first compound 8 µM,0.472
same,relative viability,[13]; first compound 0.08 µM,0.56
same,relative viability,[13]; first compound 0.253 µM,0.495
same,relative viability,[13]; first compound 0.8 µM,0.452
same,relative viability,[13]; first compound 2.53 µM,0.606
same,relative viability,[13]; first compound 8 µM,0.606
same,relative viability,[14]; first compound 0.08 µM,0.813
same,relative viability,[14]; first compound 0.253 µM,0.962
same,relative viability,[14]; first compound 0.8 µM,1.02
same,relative viability,[14]; first compound 2.53 µM,0.8
same,relative viability,[14]; first compound 8 µM,0.967
